“Also recorded” adds a separate entry of the source.
How the values were obtained:
C6 gliomas [1] = assay: Image-guided MR spectroscopy, metabolite ratios in C6 glioma; format: in vivo, rat; settings: C6 glioma rats treated with PBN
Protocol: MRS experiments. Water suppression was performed by a CHESS (chemical shift suppression) method. A spectrum was acquired in a […] voxel in the tumor region and in the contralateral control side of the brain, by using PRESS (point resolved spectroscopy) with a repetition time of 3000 ms, an echo time of 21.34 ms for an acquisition time of 13 min. An outer volume suppression tool was used to get rid of the 5 mm thick surrounding signal around the voxel. The metabolite peaks were assigned as follows, based on previous literature (Fan et al., 2004; Griffin et al., 2003): NAA at 2.02 ppm, Cr at 3.03 ppm, Cho at 3.25 ppm and mobile lipids at 1.33 ppm (methylene group) and 0.9 ppm (methyl group). Peak areas were calculated in reference to Cr peak and relative ratios were determined: NAA/Cho, NAA/Cr, Cho/Cr and Lipids/Cr. A decrease in NAA levels and an increase in lipids are indicative of the presence of a glioma (Ishimaru et al., 2001).
MR spectral peak areas were measured using the Bruker XWIN NMR peak intragration software package.

C6 gliomas [2] = assay: Survival of rats with intracerebral C6 glioma; format: in vivo, rat
Text: FIG. 11—Anti-Glioma Therapy/Percent Survival. […] Based on survival data obtained from FIG. 10.

c-MET = c-MET (Homo sapiens, UniProt P08581); assay: c-MET inhibition
c-MET, sequence (P08581 25-1390): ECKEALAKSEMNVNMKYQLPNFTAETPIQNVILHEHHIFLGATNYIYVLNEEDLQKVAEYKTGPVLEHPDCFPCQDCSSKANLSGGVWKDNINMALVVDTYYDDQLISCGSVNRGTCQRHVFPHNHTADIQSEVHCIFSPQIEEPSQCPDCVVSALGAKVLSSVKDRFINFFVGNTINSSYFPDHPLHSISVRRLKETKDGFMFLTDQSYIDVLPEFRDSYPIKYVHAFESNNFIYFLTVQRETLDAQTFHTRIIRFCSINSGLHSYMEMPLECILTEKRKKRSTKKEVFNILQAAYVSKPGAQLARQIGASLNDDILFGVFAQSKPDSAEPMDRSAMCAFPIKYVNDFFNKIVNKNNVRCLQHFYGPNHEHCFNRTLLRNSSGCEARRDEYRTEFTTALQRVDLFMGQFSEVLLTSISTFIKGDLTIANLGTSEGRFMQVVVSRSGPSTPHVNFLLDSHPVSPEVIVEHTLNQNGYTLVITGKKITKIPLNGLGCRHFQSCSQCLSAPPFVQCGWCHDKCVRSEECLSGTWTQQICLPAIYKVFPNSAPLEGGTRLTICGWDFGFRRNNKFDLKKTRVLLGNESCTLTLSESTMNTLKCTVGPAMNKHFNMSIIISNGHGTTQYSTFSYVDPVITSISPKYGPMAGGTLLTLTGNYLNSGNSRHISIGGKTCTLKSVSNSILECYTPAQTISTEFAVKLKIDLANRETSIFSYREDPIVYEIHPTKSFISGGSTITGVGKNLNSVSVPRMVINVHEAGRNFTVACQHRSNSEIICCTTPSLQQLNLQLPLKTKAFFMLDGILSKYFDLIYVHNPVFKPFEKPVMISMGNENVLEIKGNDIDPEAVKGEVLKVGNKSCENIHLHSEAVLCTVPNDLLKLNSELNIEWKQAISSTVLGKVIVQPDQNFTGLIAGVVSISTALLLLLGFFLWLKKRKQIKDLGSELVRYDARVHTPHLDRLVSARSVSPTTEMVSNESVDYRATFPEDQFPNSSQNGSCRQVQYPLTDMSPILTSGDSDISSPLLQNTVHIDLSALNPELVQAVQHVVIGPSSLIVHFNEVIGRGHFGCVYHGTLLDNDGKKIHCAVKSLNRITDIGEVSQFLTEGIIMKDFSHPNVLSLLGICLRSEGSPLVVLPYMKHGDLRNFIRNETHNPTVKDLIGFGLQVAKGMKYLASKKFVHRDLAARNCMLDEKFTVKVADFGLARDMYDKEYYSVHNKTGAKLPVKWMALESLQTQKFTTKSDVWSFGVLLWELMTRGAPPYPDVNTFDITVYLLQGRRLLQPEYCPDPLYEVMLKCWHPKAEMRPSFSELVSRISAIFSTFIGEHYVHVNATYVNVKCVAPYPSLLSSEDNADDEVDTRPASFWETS

C6 gliomas [3] = assay: MR angiography of C6 gliomas (angiogenesis, arterial blood volumes); format: in vivo, rat
Protocol: Angiography. Coronal slices are acquired by a FLASH (fast low angle shot) method with a volume of interest of 2.7×1.7×1.2 cm^3, an echo time of 2.3 ms, a repetition time of 25 ms and a flip angle of 25° for an acquisition time of 27 min. A MIP (maximum intensity projection) technique was then applied to the data to obtain a 3D-angiography. Angiography was used to visualize new blood vessel formation, i.e., angiogenesis.
The method used was quantitative analysis (using a Mathematica-based program developed in our laboratory) of arterial signal intensities from in vivo MR angiography data. Glioma region arterial blood volumes were compared to blood volumes in the contralateral control cerebral hemisphere.

[4] = cited from earlier work
C6 gliomas [5] = assay: C6 glioma growth in rats monitored by T2-weighted MRI (tumor volumes, ImageJ); format: in vivo, rat
Protocol: (§1) Cells injection. Three-month-old male Fischer 344 rats (250-350 g) were fed a choline-deficient diet. Each animal was anesthetized (3% isoflurane at 2.5 L/mn oxygen) and placed on a stereotaxic device (Stoelting, USA). The skin of the head was cleaned and incised. A hole was drilled through the skull 2 mm anterior and 2 mm lateral to the bregma, in the right-hand side of the skull. C6, 9L/LacZ or F98 cells (10^6 in 10 μL cell culture media) in a ultra-low gelling temperature agarose are injected in the cortex at a 3 mm-depth at a rate of 2 μL/mn. A waiting time of 2 min was implemented following injection and bone wax was put in the burr-hole to prevent any reflux. The wound was sutured and covered with surgical glue. The surgery was performed in sterile conditions. The syringes containing the C6, 9L/LacZ or F98 cells are kept at 37° C. until the moment of use.
PBN treatment. […] The treatment was continuous and was started at different time points. […] Some rats were not treated and served as controls (n=5).
MRI experiments. MRI experiments were performed on a 7 Tesla-30 cm horizontal bore magnet (Bruker BioSpin MRI Gmbh, Germany) at day 6-10 after the cells were injected and then every 2-3 days until the death of the rat. The animal was anesthetized (1.5% isoflurane at 1.5 L/mn oxygen) and placed in a MR probe (Bruker BioSpin MRI Gmbh, Germany). A head coil (Bruker BioSpin MRI Gmbh, Germany) was put on its head and the brain was localized.
(§2) Tumor growth monitoring. T1/T2-weighted images were obtained by a double-echo multi-slice spin echo method. Twenty-four axial slices of 1 mm thickness with an interslice distance of 1 mm were taken with a repetition time of 2369.64 ms and echo times of 17.41 ms and 63.85 ms for an acquisition time of 20 min. Tumor volumes were determined with the software ImageJ 1.32j (NIH, USA).
A T2-weighted morphological MRI method was used.

F98 gliomas = assay: F98 glioma growth in rats monitored by T2-weighted MRI; format: in vivo, rat; settings: PBN five days prior to intracerebral cell implantation
Protocol: as §1, §2

HIF-1α [6] = assay: IGF-1 induced HIF-1α expression in HCT-116 cells; format: cell-based; settings: HCT116 human colon cancer cells, 20% O2
Text: (§3) The band densities of HIF-1α were normalized by the bands of CoCl2 which was used as the positive control.
(§4) HIF-1α is a major transactivation factor which is central to the induction of VEGF as well as iNOS and many other genes very important in the development of cancer. VEGF is very important in angiogenesis essential for tumor growth and is a major target of several anti-cancer companies.

C6 gliomas [7] = assay: Histology (H&E) of C6 glioma rat brain; format: in vivo; settings: C6 rat glioma treated with PBN
Text: Note that PBN-treated C6 glioma rat brain has neuronal cells that appear similar to control rat brain. Untreated C6 glioma depicts malignant cells that are atypical in appearance (grade II to III) with few mitotic and apoptotic figures being present.
Conclusion. […] The malignant cells in the large neoplastic mass (FIG. 8B) were moderately atypical in appearance (grade II to III) with few mitotic and apoptotic figures being present. Large central areas of the mass […]) were also necrotic.

HIF-1α [8] = assay: IGF-1 induced HIF-1α expression in Hepa 1-6 cells; format: cell-based; settings: mouse hepatocellular carcinoma cell line (Hepa 1-6)
Text: as §3, §4

[9] = PBN started 5 days before surgery

CC(C)(C)[N+]([O-])=Cc1ccccc1 [PBN, phenyl N-tert-butyl nitrone]
NAA levels compared to choline (Cho) levels (C6 gliomas [1]): increase to normal levels
lipid levels compared to creatine (Cr) levels (C6 gliomas [1]): decrease to normal levels
rats surviving longer than 40 days (study end-point) (C6 gliomas [2]; PBN 5 days prior to C6 cell implantation): Eighty
rats surviving longer than 40 days (C6 gliomas [2]; PBN 14 days after C6 cell implantation): 40%
c-MET inhibition (c-MET): inhibits c-MET
normalized tumor arterial blood volumes (C6 gliomas [3]; C6 glioma, PBN 5 days prior to cell implantation, quantitative MR angiography): suppression and/or a decrease in blood volumes
changes in angiogenesis (angiograms) (C6 gliomas [3]; C6 gliomas, Example 2, qualitative MR angiography): did not seem to induce changes in angiogenesis
tissue distribution ([4]; rat, in vivo): readily and rapidly distributed almost equally to all tissues
half-life ([4]; rats): about 132 minutes
doubling time (C6 gliomas [5]; PBN 75 mg/kg/day in drinking water started on the day of surgery or 5 days after): 2.3 to 2.4 days
doubling time (C6 gliomas [5]; [9]): 4.1 days
maximum tumor volume (C6 gliomas [5]; [9]): 50 mm^3
tumor course after maximal volume (C6 gliomas [5]; PBN started on the day of surgery or 5 days after): the tumor starts to regress until it almost completely disappears
animals with recession of tumor / eradication of further tumor formation (C6 gliomas [5]; PBN starting 14 days after cell implantation, tumors >50 mm3): 40%
glioma growth outcome (C6 gliomas [5]; continuous PBN starting 5 days prior to cell implantation, n=5): recession to no tumor in all animals studied; also recorded: either not develop or recede once intially formed in all rats
glioma development (F98 gliomas): not develop in all rats
induction of HIF-1α (HIF-1α [6]): inhibits the induction of HIF-1α
histology (H&E), tumor cells (C6 gliomas [7]): no evidence of tumor cells
induction of HIF-1α (HIF-1α [8]): inhibits the induction of HIF-1α

CC(C)(C)[N+]([O-])=Cc1ccc(O)cc1 [4-hydroxy-PBN, 4-hydroxyphenyl N-tert-butylnitrone]
animals with decrease in tumor growth and angiogenesis (C6 gliomas [3]; C6 gliomas, morphology and angiography data): 2 of 5
animals with suppressed and recessed tumor growth (C6 gliomas [5]; 75 mg/kg/day in drinking water from 5 days prior to implantation, n=5): 40%

— patent US20070032453A1, “ADJUVANT CHEMOTHERAPY FOR ANAPLASTIC GLIOMAS” (Oklahoma Medical Research Foundation, priority 2005, published 2007)
